According to patent US11725000B2, “Apoptosis inhibitors” (National Institute of Biological Sciences, Beijing, priority 2017, dated 2023):
pEC50: −log10 of the molar value.

System: U2OS_Bim cells
Test: Apoptosis inhibition assay (Bim-induced apoptosis, cell viability by ATP level)
Type: cell-based
Settings: not given
Procedure: A chemical library containing 200000 compounds was screened according to the following procedure: U2OS_Bim cells (a cell line in which the BH3-only protein Bim can be inducibly expressed by the addition of Doxycycline to the growth medium)^[2] were plated in 384-well plates with 30 μl medium at a density of 500 cells per well. 16 hrs after plating, test compounds were transferred from stock plates to the assay plates with the cultured cells. Positive control (20 μM zVAD) and negative control (DMSO) were added to every plate. 1 hr after compound treatment, 0.1 ug/mL Doxycyclin (DOX) was added to induce the expression of the Bim protein. After 24 hrs, cell viability was determined by measuring the ATP levels using a Cell Titer-Glo kit (Promega, G7570) according to the manufacturer's instructions. Luminescence was recorded with a PerkinElmer EnSpire Multimode Plate Reader. Compounds that could rescue cell viability to a level above 50% were selected; these compounds were then screened a second time for assurance.
U2OS_Bim or U2OS_tBid cells were plated at a density of 3000 cells per well in 96-well plates. 24 hrs later, cells were treated with experimental compounds, zVAD (positive control) and DMSO (Negative control) for one hour. The cells were then treated with 0.1 μg/mL DOX to trigger apoptosis. 24 hours after the addition of DOX, cell viability was determined by measuring the ATP levels using a Cell Titer-Glo kit. Cell survival rate was calculated.
U2OS_Bim cells (a U2OS stable cell line transfected with a Bim transgene) were cultured in DMEM culture medium (Gibico). On day one, U2OS_Bim cells were plated in 96-well plates at a density of 3000 cells per well. On day two, cells were pretreated with compounds for one hour. Then cells were treated with 0.1 μg/mL doxycycline (DOX) to trigger apoptosis. 24 hours after DOX treatment, cell viability was determined by measuring the ATP levels using the Cell Titer-Glo kit (G7570, Promega), according to the manufacturer's instructions. Luminescence was recorded with a PerkinElmer EnSpire Multimode Plate Reader. Survived cells were normalized to those cells treated with DMSO. zVAD (20 μM) was used as a positive control. Activity data for compounds […] are represented as means f standard deviation of duplicates; activity data for compounds 187-274 are estimated based on preliminary results.

Compound | pEC50
CS(=O)(=O)c1nc(-c2ccc(=O)n(Cc3ccccc3)c2)cc(C(F)(F)F)n1 [Compound 103, 1-Benzyl-5-(2-(methylsulfonyl)-6-(trifluoromethyl)pyrimidin-4-yl)pyridin-2 (1H)-one] | 5.00 to 6.00

Same assay, conditions: U2OS_Bim cells; means of duplicates; numbering of Tables 4a/4b; read-out: EC50

Compound | pEC50
COc1ncccc1-c1cc(C(F)(F)F)nc(S(C)(=O)=O)n1 [Compound 78, 4-(2-methoxypyridin-3-yl)-2-(methylsulfonyl)-6-(trifluoromethyl)pyrimidine] | > 4.00
CS(=O)(=O)c1nc(-c2ccc[nH]c2=O)cc(C(F)(F)F)n1 [Compound 80, 3-(2-(methylsulfonyl)-6-(trifluoromethyl)pyrimidin-4-yl)pyridin-2 (1H)-one] | > 4.00
COc1ccc(Cn2cccc2-c2cc(C(F)(F)F)nc([S+](C)[O-])n2)cc1OC (stereo not drawn) [Compound 86, 4-(1-(3,4-dimethoxybenzyl)-1H-pyrrol-2-yl)-2-(methylsulfinyl)-6-(trifluoromethyl)pyrimidine] | > 4.00
CS(=O)(=O)c1nc(-c2cc[nH]c2)cc(C(F)(F)F)n1 [Compound 87, 2-(methylsulfonyl)-4-(1H-pyrrol-3-yl)-6-(trifluoromethyl)pyrimidine] | > 4.00
C[S+]([O-])c1nc(-c2cc[nH]c2)cc(C(F)(F)F)n1 (stereo not drawn) [Compound 88, 2-(methylsulfinyl)-4-(1H-pyrrol-3-yl)-6-(trifluoromethyl)pyrimidine] | > 4.00
COc1ccc(Cn2ccc(-c3cc(C(F)(F)F)nc([S+](C)[O-])n3)c2)cc1 (stereo not drawn) [Compound 92, 4-(1-(4-methoxybenzyl)-1H-pyrrol-3-yl)-2-(methylsulfinyl)-6-(trifluoromethyl)pyrimidine] | > 4.00
C[S+]([O-])c1nc(-c2ccn(Cc3cccc(Cl)c3)c2)cc(C(F)(F)F)n1 (stereo not drawn) [Compound 94, 4-(1-(3-chlorobenzyl)-1H-pyrrol-3-yl)-2-(methylsulfinyl)-6-(trifluoromethyl)pyrimidine] | > 4.00
CS(=O)(=O)c1nc(-c2ccn(Cc3ccc(Cl)cc3)c2)cc(C(F)(F)F)n1 [Compound 95, 4-(1-(4-chlorobenzyl)-1H-pyrrol-3-yl)-2-(methylsulfonyl)-6-(trifluoromethyl)pyrimidine] | > 4.00
C[S+]([O-])c1nc(-c2ccn(Cc3ccc(Cl)cc3)c2)cc(C(F)(F)F)n1 (stereo not drawn) [Compound 96, 4-(1-(4-chlorobenzyl)-1H-pyrrol-3-yl)-2-(methylsulfinyl)-6-(trifluoromethyl)pyrimidine] | > 4.00
C[S+]([O-])c1nc(-c2ccn(Cc3cccc(C#N)c3)c2)cc(C(F)(F)F)n1 (stereo not drawn) [Compound 98, 3-((3-(2-(methylsulfinyl)-6-(trifluoromethyl)pyrimidin-4-yl)-1H-pyrrol-1-yl)methyl)benzonitrile] | > 4.00
C#CCn1cc(-c2cc(C(F)(F)F)nc(S(C)(=O)=O)n2)ccc1=O [Compound 100, 5-(2-(methylsulfonyl)-6-(trifluoromethyl)pyrimidin-4-yl)-1-(prop-2-yn-1-yl) pyridin-2 (1H)-one] | 6.00 to 9.00
CS(=O)(=O)c1nc(-c2ccc(=O)n(CCN=[N+]=[N-])c2)cc(C(F)(F)F)n1 [Compound 102, 1-(2-azidoethyl)-5-(2-(methylsulfonyl)-6-(trifluoromethyl)pyrimidin-4-yl) pyridin-2 (1H)-one] | 5.00 to 6.00
CS(=O)(=O)c1nc(-c2ccc(=O)n(Cc3ccc(Cl)cc3)c2)cc(C(F)(F)F)n1 [Compound 106, 1-(4-chlorobenzyl)-5-(2-(methylsulfonyl)-6-(trifluoromethyl)pyrimidin-4-yl)pyridin-2 (1H)-one] | 6.00 to 9.00

The next lines start with the values.

pEC50 | Compound
> 4.00 | C[S+]([O-])c1nc(-c2cccc3ccccc23)cc(C(F)(F)F)n1 (stereo not drawn) [Compound 77, 2-(methylsulfinyl)-4-(naphthalen-1-yl)-6-(trifluoromethyl)pyrimidine]
> 4.00 | COc1ncccc1-c1cc(C(F)(F)F)nc([S+](C)[O-])n1 (stereo not drawn) [Compound 79, 4-(2-Methoxypyridin-3-yl)-2-(methylsulfinyl)-6-(trifluoromethyl)pyrimidine]
> 4.00 | C[S+]([O-])c1nc(-c2ccc[nH]c2=O)cc(C(F)(F)F)n1 (stereo not drawn) [Compound 81, 3-(2-(methylsulfinyl)-6-(trifluoromethyl)pyrimidin-4-yl)pyridin-2 (1H)-one]
> 4.00 | C[S+]([O-])c1nc(N2CCOCC2)cc(C(F)(F)F)n1 (stereo not drawn) [Compound 82, 4-(2-(methylsulfinyl)-6-(trifluoromethyl)pyrimidin-4-yl)morpholine]
5.00 to 6.00 | CS(=O)(=O)c1nc(-n2cccn2)cc(C(F)(F)F)n1 [Compound 83, 2-(methylsulfonyl)-4-(1H-pyrazol-1-yl)-6-(trifluoromethyl)pyrimidine]
5.00 to 6.00 | CS(=O)(=O)c1nc(-c2ccc[nH]2)cc(C(F)(F)F)n1 [Compound 84, 2-(methylsulfonyl)-4-(1H-pyrrol-2-yl)-6-(trifluoromethyl)pyrimidine]
5.00 to 6.00 | COc1ccc(Cn2cccc2-c2cc(C(F)(F)F)nc(S(C)(=O)=O)n2)cc1OC [Compound 85, 4-(1-(3,4-dimethoxybenzyl)-1H-pyrrol-2-yl)-2-(methylsulfonyl)-6-(trifluoromethyl)pyrimidine]
> 4.00 | COc1cccc(Cn2ccc(-c3cc(C(F)(F)F)nc(S(C)(=O)=O)n3)c2)c1 [Compound 89, 4-(1-(3-methoxybenzyl)-1H-pyrrol-3-yl)-2-(methylsulfonyl)-6-(trifluoromethyl)pyrimidine]
> 4.00 | COc1cccc(Cn2ccc(-c3cc(C(F)(F)F)nc([S+](C)[O-])n3)c2)c1 (stereo not drawn) [Compound 90, 4-(1-(3-methoxybenzyl)-1H-pyrrol-3-yl)-2-(methylsulfinyl)-6-(trifluoromethyl)pyrimidine]
> 4.00 | COc1ccc(Cn2ccc(-c3cc(C(F)(F)F)nc(S(C)(=O)=O)n3)c2)cc1 [Compound 91, 4-(1-(4-methoxybenzyl)-1H-pyrrol-3-yl)-2-(methylsulfonyl)-6-(trifluoromethyl)pyrimidine]
> 4.00 | CS(=O)(=O)c1nc(-c2ccn(Cc3cccc(Cl)c3)c2)cc(C(F)(F)F)n1 [Compound 93, 4-(1-(3-chlorobenzyl)-1H-pyrrol-3-yl)-2-(methylsulfonyl)-6-(trifluoromethyl)pyrimidine]
> 4.00 | CS(=O)(=O)c1nc(-c2ccn(Cc3cccc(C#N)c3)c2)cc(C(F)(F)F)n1 [Compound 97, 3-((3-(2-(methylsulfonyl)-6-(trifluoromethyl)pyrimidin-4-yl)-1H-pyrrol-1-yl)methyl)benzonitrile]
> 4.00 | CS(=O)(=O)c1nc(-c2ccc(=O)[nH]c2)cc(C(F)(F)F)n1 [Compound 99, 5-(2-(methylsulfonyl)-6-(trifluoromethyl)pyrimidin-4-yl)pyridin-2 (1H)-one]
5.00 to 6.00 | C#CCn1cc(-c2cc(C(F)(F)F)nc([S+](C)[O-])n2)ccc1=O (stereo not drawn) [Compound 101, 5-(2-(methylsulfinyl)-6-(trifluoromethyl)pyrimidin-4-yl)-1-(prop-2-yn-1-yl) pyridin-2 (1H)-one]
6.00 to 9.00 | CS(=O)(=O)c1nc(-c2ccc(=O)n(Cc3ccccc3Cl)c2)cc(C(F)(F)F)n1 [Compound 104, 1-(2-chlorobenzyl)-5-(2-(methylsulfonyl)-6-(trifluoromethyl)pyrimidin-4-yl)pyridin-2 (1H)-one]
6.00 to 9.00 | CS(=O)(=O)c1nc(-c2ccc(=O)n(Cc3cccc(Cl)c3)c2)cc(C(F)(F)F)n1 [Compound 105, 1-(3-chlorobenzyl)-5-(2-(methylsulfonyl)-6-(trifluoromethyl)pyrimidin-4-yl)pyridin-2 (1H)-one]
